Measured values as given in ChEMBL document CHEMBL1201862, “PubChem BioAssay data set” (2004).
“And” between values parts separate entries of the source, which are not always exact repeats. Equal entries are not always repeated.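 Cultured in 96-well plates, cells were exposed to test compound for 48 hours across five concentrations. The concentration for 50% growth inhibition is given as GI50.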 The source made the active and inactive calls. No stated cut-off is given here; in the data, active = GI50 up to about 1.1 µM and inactive = higher.

Assays:
Assay in all cases: NCI-60 cell line screen, 48 h
786-0 = system: 786-0
HCT-15 = system: HCT-15
HL-60 = system: HL-60
LOX IMVI = system: LOX IMVI
MCF7 = system: MCF7
MDA-MB-435 = system: MDA-MB-435
MOLT-4 = system: MOLT-4
NCI-H23 = system: NCI-H23
NCI-H522 = system: NCI-H522
OVCAR-4 = system: OVCAR-4
OVCAR-5 = system: OVCAR-5
RPMI-8226 = system: RPMI-8226
SK-MEL-5 = system: SK-MEL-5
SK-OV-3 = system: SK-OV-3
SR = system: SR
T47D = system: T47D
TK-10 = system: TK-10
U-251 = system: U-251
UACC-257 = system: UACC-257

Row | SMILES | GI50 (786-0) | GI50 (HCT-15) [µM] | GI50 (HL-60) | GI50 (LOX IMVI) | GI50 (MCF7) | GI50 (MDA-MB-435) | GI50 (MOLT-4) | GI50 (NCI-H23) | GI50 (NCI-H522) | GI50 (OVCAR-4) | GI50 (OVCAR-5) | GI50 (RPMI-8226) | GI50 (SK-MEL-5) | GI50 (SK-OV-3) | GI50 (SR) | GI50 (T47D) | GI50 (TK-10) | GI50 (U-251) | GI50 (UACC-257)
1 | CC(=O)O[C@H]1C(=O)[C@@]2(C)[C@H]([C@H](OC(=O)c3ccccc3)[C@]3(O)C[C@H](OC(=O)[C@H](O)[C@@H](NC(=O)c4cccc(N=[N+]=[N-])c4)c4ccccc4)C(C)=C1C3(C)C)[C@]1(OC(C)=O)CO[C@@H]1C[C@@H]2O | 0.0179 µM (active) | 0.662 | < 0.0025 µM (active) | 0.00789 µM (active) | < 0.0025 µM (active) | < 0.0025 µM (active) | 0.00453 µM (active) | 0.00641 µM (active) | 0.00307 µM (active) | 6.05 µM (inactive) | 0.00893 µM (active) | < 0.0025 µM (active) | 0.00507 µM (active) | 0.0122 µM (active) | < 0.0025 µM (active) | 0.0338 µM (active) | 0.117 µM (active) | 0.00629 µM (active) | 0.00621 µM (active)
2 | Nc1ncn(C/C=C/c2ccccc2)c2ncnc1-2 | > 100 µM (inactive) | > 100 |  | > 100 µM (inactive) | > 100 µM (inactive) | > 100 µM (inactive) | 16.6 µM (inactive) | > 100 µM (inactive) | 78.2 µM (inactive) | > 100 µM (inactive) | > 100 µM (inactive) | > 100 µM (inactive) | > 100 µM (inactive) | > 100 µM (inactive) | 21.4 µM (inactive) | > 100 µM (inactive) | > 100 µM (inactive) | > 100 µM (inactive) | > 100 µM (inactive)
3 | Cc1cc(S(=O)(=O)/N=C(\NN)Nc2ccc(Cl)cc2)c(S)cc1Cl | 6.34 µM (inactive) | 1.14 | 6.27 µM (inactive) | 13.9 µM (inactive) | 14.8 µM (inactive) | 8.02 µM (inactive) | 2.75 µM (inactive) |  | 16 µM (inactive) | 13.2 µM (inactive) | 1.81 µM (inactive) | 12.3 µM (inactive) | 4.94 µM (inactive) | 23 µM (inactive) | 3.76 µM (inactive) | 3.4 µM (inactive) | 21.3 µM (inactive) | 6.87 µM (inactive) | 19.3 µM (inactive)
4 | CCCCCCCCCCCCC(=O)NCC(=O)NC(Cc1ccccc1)C(=O)Oc1ccc([N+](=O)[O-])cc1 (stereo not drawn) | 84.3 µM (inactive) | 38.1 | 64.4 µM (inactive) | 36.2 µM (inactive) | 57.5 µM (inactive) | 65.8 µM (inactive) |  | 57.7 µM (inactive) | 29.4 µM (inactive) |  | > 100 µM (inactive) |  | 72.4 µM (inactive) |  | 33.7 µM (inactive) | 92.9 µM (inactive) | > 100 µM (inactive) |  | > 100 µM (inactive)
5 | CC(=O)OCC(OC(C)=O)C(OC(C)=O)C(/C=N\Nc1nc2ccccc2c(=O)[nH]1)OC(C)=O (stereo not drawn) | > 100 µM (inactive) | > 100 | 67.9 µM (inactive) and 85.9 µM (inactive) | > 100 µM (inactive) | > 100 µM (inactive) | > 100 µM (inactive) | 86.9 µM (inactive) | > 100 µM (inactive) |  |  | > 100 µM (inactive) | 91.8 µM (inactive) | > 100 µM (inactive) | > 100 µM (inactive) | > 100 µM (inactive) | > 100 µM (inactive) | > 100 µM (inactive) | > 100 µM (inactive) | > 100 µM (inactive)
6 | [N-]=[N+]=Nc1nc2ccccc2c(N=[N+]=[N-])c1Cl | 56.2 µM (inactive) | > 100 | > 100 µM (inactive) | > 100 µM (inactive) | > 100 µM (inactive) | > 100 µM (inactive) | > 100 µM (inactive) | > 100 µM (inactive) |  | 68.9 µM (inactive) | > 100 µM (inactive) | > 100 µM (inactive) | > 100 µM (inactive) | 92 µM (inactive) | > 100 µM (inactive) | > 100 µM (inactive) | > 100 µM (inactive) | > 100 µM (inactive) | > 100 µM (inactive)
7 | O=C(O[C@H]1CCN2C[C@H]3C[C@H](CN4C(=O)CCC[C@H]34)[C@@H]2C1)c1ccc(O)cc1 | > 100 µM (inactive) | > 100 |  | > 100 µM (inactive) | > 100 µM (inactive) | > 100 µM (inactive) |  | > 100 µM (inactive) | > 100 µM (inactive) | > 100 µM (inactive) | > 100 µM (inactive) | > 100 µM (inactive) |  | > 100 µM (inactive) | > 100 µM (inactive) | > 100 µM (inactive) | > 100 µM (inactive) | > 100 µM (inactive) | > 100 µM (inactive)
8 | c1nncn1C12C3C4C5C3C1C5C42 (stereo not drawn) | > 100 µM (inactive) | > 100 | > 100 µM (inactive) | > 100 µM (inactive) | > 100 µM (inactive) | > 100 µM (inactive) | > 100 µM (inactive) | > 100 µM (inactive) | > 100 µM (inactive) |  | > 100 µM (inactive) | > 100 µM (inactive) | > 100 µM (inactive) | > 100 µM (inactive) | > 100 µM (inactive) | > 100 µM (inactive) | > 100 µM (inactive) | > 100 µM (inactive) | > 100 µM (inactive)
